What was measured:
[1] = Liquid, Vibrating tube method
[2] = xn = mol fraction of the nth substance listed; details: Liquid; for viscosity: Electromagnetically Driven Piston; for mass density: Vibrating tube method

CCCCCCCCCCCCCC [tetradecane]
[1]
Details | mass density [kg/m3]
294.4 K, 5030 kPa | 764
294.6 K, 8000 kPa | 766
294.6 K, 9490 kPa | 767
294.8 K, 2050 kPa | 760
294.8 K, 3540 kPa | 762
294.8 K, 6500 kPa | 765
324 K, 3540 kPa | 743
324 K, 5050 kPa | 744
324 K, 6560 kPa | 746
324.1 K, 2070 kPa | 742
324.1 K, 8070 kPa | 747
324.1 K, 9540 kPa | 748
373.3 K, 5060 kPa | 711
373.3 K, 6560 kPa | 712
373.5 K, 2100 kPa | 708
373.5 K, 3560 kPa | 709
373.5 K, 8030 kPa | 713
373.5 K, 9500 kPa | 715
447.5 K, 4920 kPa | 660
447.5 K, 6450 kPa | 662
447.6 K, 1990 kPa | 655
447.6 K, 3590 kPa | 658
447.6 K, 7960 kPa | 665
447.6 K, 9470 kPa | 667

CCCCCCCCCCCCCC [tetradecane] + C
[2]
Details | mass density [kg/m3] | viscosity [mPa·s]
294.4 K, x2 = 0.232 | 740 | 1.48
294.6 K, x2 = 0.331 | 728 | 1.16
294.6 K, x2 = 0.364 | 723 | 1.05
294.8 K, x2 = 0.112 | 752 | 1.74
294.8 K, x2 = 0.176 | 746 | 1.64
294.8 K, x2 = 0.282 | 734 | 1.33
324 K, x2 = 0.159 | 726 | 0.97
324 K, x2 = 0.213 | 722 | 0.91
324 K, x2 = 0.264 | 716 | 0.82
324.1 K, x2 = 0.1 | 732 | 1.07
324.1 K, x2 = 0.306 | 711 | 0.75
324.1 K, x2 = 0.342 | 706 | 0.7
373.3 K, x2 = 0.193 | 689 | 0.51
373.3 K, x2 = 0.239 | 683 | 0.49
373.5 K, x2 = 0.09 | 699 | 0.57
373.5 K, x2 = 0.143 | 694 | 0.54
373.5 K, x2 = 0.279 | 678 | 0.46
373.5 K, x2 = 0.317 | 674 | 0.44
447.5 K, x2 = 0.176 | 636 | 0.28
447.5 K, x2 = 0.223 | 631 | 0.27
447.6 K, x2 = 0.078 | 646 | 0.31
447.6 K, x2 = 0.137 | 640 | 0.29
447.6 K, x2 = 0.266 | 625 | 0.25
447.6 K, x2 = 0.303 | 620 | 0.24

Source: the NIST ThermoML archive (doi:10.1016/j.fluid.2012.01.023)
